Test results: ChEMBL document CHEMBL1150126, “Oxidation products of abietic acid and its methyl ester” (J Nat Prod, 2002)
Values after ≈ are worked out from the molar mass of the structure shown.

Each compound was assayed on KB (assay: Cytotoxicity against human KB cells). Details: Homo sapiens, KB; read-out: IC50; call rule not given here.
Format: functional, cell-based
COC(=O)[C@]1(C)CCC[C@@]2(C)[C@H]1CC=C1C=C(C(C)C)C(=O)C[C@@H]12 gave an IC50 of 12.5 µg/mL (≈ 37.8 µM).
For COC(=O)[C@]1(C)CCC[C@]2(C)c3ccc(C(C)C)cc3C(=O)C[C@@H]12, the IC50 was 4.5 µg/mL (≈ 13.7 µM).
COC(=O)[C@]1(C)CCC[C@]2(C)c3ccc(C(C)C)cc3[C@H](O)C[C@@H]12 gave an IC50 of 5.8 µg/mL (≈ 17.6 µM).

Same assay, conditions: kb
CC(C)C(=O)CC[C@H]1C(C=O)=CC[C@@H]2[C@]1(C)CCC[C@@]2(C)C(=O)O was tested, and the IC50 was “Not Active”.
For CCO[C@@]1(C(C)C)C=C2[C@H](O)C[C@@H]3[C@](C)(CCC[C@@]3(C)C(=O)OC)[C@H]2CC1, the IC50 was “Not Active”.
For COC(=O)[C@]1(C)CCC[C@@]2(C)[C@H]1C[C@@H](O)C1=C[C@@](O)(C(C)C)CC[C@@H]12, the IC50 was “Not Active”.
For CC(C)(O)c1ccc2c(c1)[C@H](O)C[C@H]1[C@](C)(C(=O)O)CCC[C@]21C, the IC50 was “Not Active”.
CC(C)C1=CC2=CC[C@@H]3[C@](C)(CCC[C@@]3(C)C(=O)O)[C@H]2CC1 [ABIETIC ACID] was tested, and the IC50 was “Not Active”.
With COC(=O)[C@]1(C)CCC[C@@]2(C)[C@H]1CC=C1C=C(C(C)C)CC[C@@H]12 [METHYL ABIETATE] the IC50 was “Not Active”.
